Molecules are shown by their SMILES. “And” between values parts separate entries of the source, which are not always exact repeats. Equal values may be shown once.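 Assay format: 96-well plates, 48-hour exposure. Abbreviation: GI50, concentration required for 50% inhibition of growth. TGI marks complete inhibition of growth.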 Some results are limits rather than exact numbers.

Drawing on PubChem BioAssay (NCI), this text covers TGI and GI50 for twelve molecules.

What all share (experiment): NCI anticancer screen, dose series, 48 h
Test [1] has as its system BT-549 breast.
In test [2] the test system is COLO 205 colon.
Test [3] has as its system HL-60(TB) leukemia.
Test [4] deals with MALME-3M melanoma.
Test [5] deals with SK-MEL-2 melanoma.
Test [6] concerns SK-MEL-5 melanoma.
Test [7] relates to SNB-19 CNS.
The test system of test [8] is TK-10 renal.
For test [9], the system named is A549 NSCLC.
For test [10], the system named is SF-539 CNS.

As to `CC(=O)OCC1OC(SC2=N/C(=C\c3ccc(Br)s3)C(=O)N2c2ccccc2)C(OC(C)=O)C(OC(C)=O)C1OC(C)=O` (configuration not stated), the TGI in test [1] was above 100 µM; in test [2] it was above 100 µM; in test [3] it was > 100 µM and 21.4 µM; in [4] it was above 100 µM; in [5] it was > 100 µM and 48.9 µM; in test [6], above 100 µM. Besides, the TGI in [7] and in [8] was above 100 µM throughout. Further, the GI50 in test [3] is 8500 nM and 3830 nM.

With `CCCCCN(CCCCC)CCC[C@@H](C)[C@H]1CC[C@H]2[C@@H]3[C@H](OCCCN)C[C@@H]4C[C@H](OCCCN)CC[C@]4(C)[C@H]3C[C@H](OCCCN)[C@]12C`, the GI50 in test [9] was 5 µM; in [1], 3.27 µM; in test [2] it was 5890 nM; in [3], 2140 nM; in test [4], 4800 nM; in test [10], 1940 nM. The results for the GI50 in [5], in [6] and in test [7] were 15100 nM, 3.85 µM and 7.9 µM, respectively. The TGI was determined as 21.9 µM in test [9]; 8.37 µM in test [1]; 22.8 µM in [2]; 5.81 µM in [3]; 17.7 µM in test [4]; 4.3 µM in test [10]. The TGI in test [5] was 31.3 µM; in test [6] it was 16.2 µM; in [7] it was 24.3 µM.

As to `CCCN(CCC)c1ccc(/C=N/NC(=O)c2cccnc2)c(C)c1`, the GI50 in test [9] is 15.7 µM; in [1], 15.2 µM; in [2] it was 14500 nM; in test [3], 13400 nM; in test [4], 13000 nM; in [10] it was 13800 nM. The results for the GI50 in [6], in test [7] and in test [8] were 12.8 µM, 16.1 µM and 16 µM, respectively. In addition, the TGI is 36.8 µM in [9]; 29.3 µM in test [1]; 27.6 µM in [2]; 39.5 µM in [3]; 28.2 µM in test [4]; 29.3 µM in test [10]. Moreover, the figures for the TGI in test [6], in test [7] and in test [8] were 25.4 µM, 34.1 µM and 38.5 µM, respectively.

For `COc1ccc(C2c3ccc4ccccc4c3Oc3ncn(CCCn4ccnc4)c(=N)c32)cc1OC` (configuration not stated), the GI50 in [9] was 3.75 µM; in [1], 3.41 µM; in test [2] it was 2040 nM; in test [3] it was 2040 nM; in test [4] it was 2120 nM; in test [10] it was 1740 nM. For the same molecule, the GI50 was 1.66 µM in [6], 11.2 µM in test [7] and 4 µM in [8]. For the same molecule, the TGI in test [9] was determined as 13.8 µM; in [1], 13.5 µM; in test [2], 4.51 µM; in test [3] it was 4.05 µM; in test [4] it was 3.89 µM; in test [10] it was 3.28 µM. The results for the TGI in test [6], in test [7] and in test [8] were 3.11 µM, 26.7 µM and 14.4 µM, respectively.

`COc1ccc(C)c2sc(N(Cc3cccnc3)C(=O)c3ccc(C#N)cc3)nc12`: the GI50 is 43.6 µM in test [9]; 35 µM in test [1]; 24700 nM in test [2]; 31100 nM in test [3]; 52100 nM in [4]; 55600 nM in test [10]. Besides, the GI50 is 24.4 µM in test [6], 94.7 µM in [7] and 58.4 µM in test [8]. The TGI in test [9] is above 100 µM; in [1] it was above 100 µM; in test [2], 70 µM; in [3], above 100 µM; in [4] it was above 100 µM; in test [10], above 100 µM. In addition, the values for the TGI in test [6], in test [7] and in test [8] were 93.8 µM, above 100 µM and above 100 µM, respectively.

For the molecule `CCCCCCCCCCCCCCCCn1cc[n+](C)c1`, the GI50 in test [9] is 0.326 µM; in test [1], 0.444 µM; in test [2], 270 nM; in [3] it was 129 nM; in test [4] it was 357 nM; in [10], 1160 nM. The GI50 in test [7] was 0.705 µM; in [8] it was 0.254 µM. In addition, the TGI was 1.6 µM in test [9]; 1.61 µM in [1]; 0.321 µM in [3]; 1.51 µM in test [4]; 2.38 µM in [10]; 2 µM in [7]. This molecule displayed a TGI in test [8] of 0.929 µM.

With `O=C(Nc1ccc(Cl)c(C(F)(F)F)c1)Nc1ccc(-c2cccnc2)cc1N1CCC(CO)CC1`, the GI50 in test [9] was 3.45 µM; in test [1], 2.13 µM; in test [2], 1650 nM; in [4], 2270 nM; in [10] it was 2290 nM; in test [5] it was 1860 nM. For the same molecule, the GI50 is 1.63 µM in test [6], 3.89 µM in test [7] and 1.85 µM in [8]. The TGI came to 23.8 µM in [9]; 6.22 µM in test [1]; 3.18 µM in [2]; 7.36 µM in [4]; 5.84 µM in [10]; 4.34 µM in test [5]. The TGI in [6] is 3.12 µM; in test [7] it was above 100 µM; in test [8], 4.76 µM.

As for `CCCCCCOC(=O)CC1=C(C)/C(=C/c2[nH]c(-c3ccc[nH]3)cc2OC)N=C1C`, the GI50 was 0.361 µM in [9]; 0.0865 µM in test [1]; 87 nM in [2]; 385 nM in [3]; 345 nM in test [4]; 63.5 nM in [10]. Moreover, the values for the GI50 in test [5], in [7] and in [8] were 53.2 nM, 0.271 µM and 0.108 µM, respectively. Further, the TGI in test [9] stood at 1.26 µM; in test [1] it was 1.59 µM; in [2], 1.09 µM; in [3], 1.76 µM; in test [4], 1.44 µM; in [10] it was 1.27 µM. Also, the TGI is 0.23 µM in [5], 2.76 µM in [7] and 1.38 µM in [8].

For the molecule `COc1ccc(-c2cnc(-c3ccc(OC)cc3)n2-c2cc(OC)c(OC)c(OC)c2)cc1`, the GI50 was 23.1 µM in test [9]; 28.6 µM in test [1]; 56000 nM in test [2]; 13300 nM in test [4]; 23900 nM in [10]; 32300 nM in test [5]. Besides, the figures for the GI50 in [6], in test [7] and in test [8] were 22.7 µM, 19.8 µM and 20.5 µM, respectively. Further, the TGI in test [9] is 82.2 µM; in test [1] it was 86.1 µM; in test [2], above 100 µM; in [4] it was 30.6 µM; in [10] it was 54.9 µM; in [5], above 100 µM. The TGI stood at 67.4 µM in test [6], 60.5 µM in test [7] and 39.2 µM in test [8].

As to `Cc1cccc2c(=O)c3c(sc12)c(NCCCNCCO)nc1ccccc13`, the GI50 in test [9] was 1.06 µM; in test [1], 1.85 µM; in [2], 1610 nM; in test [3], 1820 nM; in test [4], 1810 nM; in test [10] it was 1710 nM. Also, the GI50 in test [5] is 1750 nM; in test [6] it was 1.78 µM. The TGI stood at 2.64 µM in test [9]; 4.27 µM in [1]; 3.24 µM in [2]; 3.49 µM in test [3]; 3.5 µM in [4]; 3.09 µM in test [10]. Besides, the TGI came out at 3.34 µM in test [5] and 3.29 µM in test [6].

Take `COC(=O)c1c2c(c(C)[n+]([O-])c1C)C(=O)C(NCc1ccccc1)=CC2=O`: the GI50 in test [9] is 2.47 µM; in test [1], 4.19 µM; in [2], 977 nM; in test [4] it was 617 nM; in test [10], 2290 nM; in [5] it was 2630 nM. Also, the GI50 in [6] is 1.23 µM; in test [7], 3.25 µM; in test [8] it was 4.48 µM. The TGI in test [9] came to 7.94 µM; in test [1], 16 µM; in [2] it was 2.67 µM; in [4], 1.88 µM; in test [10] it was 5.3 µM; in test [5], 9.48 µM. Besides, the TGI in test [6] amounted to 2.5 µM; in test [7], 11.2 µM; in test [8], 18.7 µM.

Regarding `COC(=O)[C@H](Cc1cn(C)cn1)NC(=O)[C@H](CC(C)C)NC(=O)Nc1cc(C(F)(F)F)cc(C(F)(F)F)c1`, the GI50 was above 10 µM in test [1]; above 10000 nM in [2]; above 10000 nM in test [3]; above 10000 nM in test [4]; above 10000 nM in test [10]; above 10000 nM in test [5]. Besides, the GI50 in test [6], in [7] and in test [8] was above 10 µM throughout. The TGI in test [1], in test [2], in test [3], in test [4], in test [10] and in test [5] was above 10 µM throughout. The TGI in test [6], in [7] and in [8] was above 10 µM each time.
